Data as given in patent US4576951A, “Proglumide, pharmaceutical preparations and compositions including it for use in human pain relief” (priority 1983, dated 1986).
Where two headings read alike, the source gives them in different places.

Key:
[1] = Hot plate test: potentiation of analgesic activity of opiates; assay type: in vivo, rats; settings: proglumide 5 mg/kg s.c.
Experimental: The method is that described by Eddy et al. (J. Pharmac. Exp. Therm. 107, 385 (1953)).
Groups of five male rats having a weight of about 150 g and which have not been fasting are used.
The animals are placed on a metal plate which is on the bottom of a transparent cylinder heated to 55°±1° C. by an azeotropic boiling mixture (1:1 acetone-ethyl formate). The time which passes between the moment at which the animal is placed on the hot plate and the moment at which it licks its feet or tries to jump out of the cylinder is defined as the reaction time. The control reaction time is measured 10 and 5 minutes before the administration of the drugs and 10, 20, 30, 45, 60, 90 minutes afterwards. The animals are left on the plate for a maximum period of 30 seconds. The response to the administration of the product is considered positive if at least a doubling of the normal reaction time is seen. The results obtained are given in Table 2 which records the groups treated, the doses administered and the stay times on the plate expressed as the number of positive responses over the number treated.

[2] = assay type: in vivo, rats
Experimental: Activity of proglumide as an antagonist to the tolerance induced by opiates
Groups of five male rats having a weight of about 200-250 g were used.
The determination of the pain threshold was effected 1, 3, 6, 9 and 12 hours after the first treatment by the Tail Flick test.
The data given in Table 5 indicate the percentage variations in the latency (appearance of pain) before and after treatment with the drugs.

[3] = assay type: in vivo, rats; remark: listed apart in the source
Experimental: The method is that described by Harris et al. (J. Pharmcol. Exp. Ther. 143 (1964) 141-148).
Male rats are used which have a weight of about 150-200 g and which have not been fasting. A point is chosen on the tail and this is irradiated by a heat source (75° C.) and the time (in seconds) for which the animal remains without moving its tail is measured.
A maximum period of time under the heat source of 8 seconds is chosen after which the animal is, in any case, removed in order to avoid tissue damage. The measurement is effected before (controls) and after treatment with the drugs. […] The percentage variation is calculated for each individual animal by the following formula: [formula] (time measurements are in seconds)
The measurements are carried out 10, 20, 30, 45, 60 and 90 minutes after treatment with the analgesics.

in vivo = settings: mouse, sc
Experimental: The drug (or drugs) under examination was administered sub-cutaneously. The animals were kept under observation for 15 days after the administration.
Ten animals were used for each dose.

[4] = Potentiation of analgesic effect of enkephalinamide (DALA) i.c.v. (Tail Flick test); assay type: in vivo, rats
Experimental: Potentiation of the analgesic activities of enkephalins induced by proglumide
In order to check one of the possible mechanisms for the action of proglumide, that is its possible inhibition of the enzymatic degradation of endogenous enkephalins, the following experiment was carried out:
A cannula was implanted in the right lateral ventricle of male rats having a weight of 150-200 g (groups of five animals were used) in order to allow the intracerebroventricular (I.C.V.) administration of drugs according to the method of Noble et al (Life Science 6, (1970) 281-291). […]

[5] = Tail Flick Test after transcutaneous shock: analgesic activity of endogenous opiates; assay type: in vivo, rats
Experimental: Influence of proglumide on the analgesic activity of endogenous opiates released under transcutaneous shock in rats measured by the Tail Flick Test The method is that described by Lewis et al. (J. Naurosc. 1, 358 (1981)). Male rats having a weight of about 200 g, which have not been fasting, are used. The animals are stressed by the application to the front leg of a 60 Hz-2.5 mA current in pulses of a duration of one second every five seconds for 20 minutes. This stress regime causes the release of endogenous opiates.

[6] = 1 min, proglumide 20 mg/kg, no stress
[7] = 1 min, stress + proglumide 1 mg/kg
[8] = 1 min, stress + proglumide 5 mg/kg
[9] = 1 min, stress + proglumide 20 mg/kg
[10] = 5 min, proglumide 20 mg/kg, no stress
[11] = 5 min, stress + proglumide 1 mg/kg
[12] = 5 min, stress + proglumide 5 mg/kg
[13] = 5 min, stress + proglumide 20 mg/kg
[14] = 10 min, proglumide 20 mg/kg, no stress
[15] = 10 min, stress + proglumide 1 mg/kg
[16] = 10 min, stress + proglumide 5 mg/kg
[17] = 10 min, stress + proglumide 20 mg/kg
[18] = 15 min, proglumide 20 mg/kg, no stress
[19] = 15 min, stress + proglumide 1 mg/kg
[20] = 15 min, stress + proglumide 5 mg/kg
[21] = 15 min, stress + proglumide 20 mg/kg

SMILES: CCCN(CCC)C(=O)C(CCC(=O)O)NC(=O)c1ccccc1 (racemic) [Proglumide, D,L-4-benzamido-N, N-dipropylglutaramic acid]
- increase of the analgesic effect of morphine and methadone [1]: at least double
- antagonism of development of tolerance ([2]; proglumide 20 mg/kg): highly significant
- effect on development of tolerance induced by morphine ([2]; rat, in vivo, ip): opposes the development of tolerance
- ED50 for potentiation of the analgesic effect (proglumide increasing effect by 50%) ([3]; rat, in vivo, ip): 4.15 mg/kg
- ED50 for potentiation of the analgesic effect (proglumide increasing effect by 50%) ([3]; strengthening of propoxyphene): 2.26 mg/kg
- LD50 at 360 h (in vivo): > 5000 mg/kg
- % variation in the latency to pain ([4]; 5 min, alone i.c.v.: proglumide 1 or DALA 10 μg/kg): 18.06 ± 10.8%
- % variation in the latency to pain ([4]; 15 min, alone i.c.v.: proglumide 1 or DALA 10 μg/kg): 2.18 ± 10.6%
- % variation in the latency to pain ([4]; 30 min, alone i.c.v.: proglumide 1 or DALA 10 μg/kg): 18.36 ± 5.9%
- % variation in the latency to pain ([4]; 45 min, alone i.c.v.: proglumide 1 or DALA 10 μg/kg): -10.94 ± 14.5%
- % variation in the latency to pain ([4]; 60 min, alone i.c.v.: proglumide 1 or DALA 10 μg/kg): -5.58 ± 8.1%
- % variation in the latency to pain ([4]; 90 min, alone i.c.v.: proglumide 1 or DALA 10 μg/kg): 13.3 ± 8.4%
- Average (0 → 90) % variation in the latency to pain ([4]; alone i.c.v.: proglumide 1 or DALA 10 μg/kg): 5.9 ± 5.12%
- action on the analgesic effect of the enkephalinamide (DALA) ([4]; i.c.v.): potentiating action of proglumide on the analgesic effect of the enkephalinamide (DALA) both in intensity and duration
- significance of potentiating action on DALA analgesia ([4]; proglumide 1 μg/kg): highly significant
- Average latency (tail flick) [5, 6]: 3.66 ± 0.25 s
- t (vs control stress) [5, 6]: 6.90
- t (vs control) [5, 6]: 0.37
- t (vs control stress) [5, 7]: 0.92
- t (vs control) [5, 7]: 5.21
- t (vs control stress) [5, 8]: 0.87
- t (vs control) [5, 8]: 4.25
- t (vs control stress) [5, 9]: 6.14
- t (vs control) [5, 9]: 9.54
- Average latency (tail flick) ([5]; 1 min after shock, stress + proglumide 1 mg/kg): 6.37 ± 0.45 s
- Average latency (tail flick) ([5]; 1 min after shock, stress + proglumide 5 mg/kg): 6.33 ± 0.57 s
- Average latency (tail flick) ([5]; 1 min after shock, stress + proglumide 20 mg/kg): 13.59 ± 1.0 s
- Average latency (tail flick) [5, 10]: 3.59 ± 0.20 s
- t (vs control stress) [5, 10]: 5.88
- t (vs control) [5, 10]: 1.36
- t (vs control stress) [5, 11]: 0.69
- t (vs control) [5, 11]: 5.18
- t (vs control stress) [5, 12]: 2.74
- t (vs control) [5, 12]: 5.62
- t (vs control stress) [5, 13]: 3.90
- t (vs control) [5, 13]: 7.29
- Average latency (tail flick) ([5]; 5 min after shock, stress + proglumide 1 mg/kg): 6.55 ± 0.43 s
- Average latency (tail flick) ([5]; 5 min after shock, stress + proglumide 5 mg/kg): 8.5 ± 0.76 s
- Average latency (tail flick) ([5]; 5 min after shock, stress + proglumide 20 mg/kg): 9.16 ± 0.67 s
- Average latency (tail flick) [5, 14]: 3.57 ± 0.16 s
- t (vs control stress) [5, 14]: 2.57
- t (vs control) [5, 14]: 0.12
- t (vs control stress) [5, 15]: 0.86
- t (vs control) [5, 15]: 1.83
- t (vs control stress) [5, 16]: 0.72
- t (vs control) [5, 16]: 2.98
- t (vs control stress) [5, 17]: 5.01
- t (vs control) [5, 17]: 7.02
- Average latency (tail flick) ([5]; 10 min after shock, stress + proglumide 1 mg/kg): 4.07 ± 0.22 s
- Average latency (tail flick) ([5]; 10 min after shock, stress + proglumide 5 mg/kg): 4.66 ± 0.32 s
- Average latency (tail flick) ([5]; 10 min after shock, stress + proglumide 20 mg/kg): 6.94 ± 0.44 s
- Average latency (tail flick) [5, 18]: 3.57 ± 0.15 s
- t (vs control stress) [5, 18]: 0.04
- t (vs control) [5, 18]: 1.49
- t (vs control stress) [5, 19]: 0.43
- t (vs control) [5, 19]: 0.82
- t (vs control stress) [5, 20]: 0.98
- t (vs control) [5, 20]: 0.11
- t (vs control stress) [5, 21]: 3.34
- t (vs control) [5, 21]: 2.89
- Average latency (tail flick) ([5]; 15 min after shock, stress + proglumide 1 mg/kg): 3.68 ± 0.16 s
- Average latency (tail flick) ([5]; 15 min after shock, stress + proglumide 5 mg/kg): 3.81 ± 0.16 s
- Average latency (tail flick) ([5]; 15 min after shock, stress + proglumide 20 mg/kg): 4.78 ± 0.32 s
- effect on the analgesic effect of endogenous enkephalins ([5]; proglumide 5 mg/kg): can increase (in one case significantly)
- effect on the analgesic effect of endogenous enkephalins ([5]; proglumide 20 mg/kg): significantly more marked both in intensity and duration
